The numbers were not newly measured in US9402854B2, “Pharmaceutical composition” (Cipla Limited, priority 2012, dated 2016), which cites them from elsewhere.

Molecules are shown by their SMILES.

For this data set the following is noted: versus racemic formoterol (contains both (S,S) and (R,R) enantiomers).

Consider `COc1ccc(C[C@@H](C)NC[C@H](O)c2ccc(O)c(NC=O)c2)cc1` [Arformoterol], for which the “potency relative to racemic formoterol” value was “two-fold greater potency”.
